Data from patent publication US8859628B2, “Method for preventing, treating and diagnosing disorders of protein aggregation” (priority 2003, dated 2014).
“Also recorded” adds a separate entry of the source.

Legend:
Format in all cases: in vivo, mouse
[1] = tested on: TgCRND8 mice; assay: Gliosis quantitation (GFAP astrocytes, CD68 microglia); conditions: prevention
From the text: Gliosis Quantitation—Five randomly selected, evenly spaced, sagittal sections were collected from paraformaldehyde-fixed and frozen hemispheres of treated and control mice. Sections were immunolabelled for astrocytes with anti-rat GFAP IgG2a (Dako; diluted 1:50) and for microglia with anti-rat CD68 IgG2b (Dako; 1:50).
Serial sagittal sections were stained with the astrocytic marker glial fibrillary acidic protein (GFAP) and quantitated for percent brain area covered by astrogliosis.

[2] = tested on: TgCRND8 mice; assay: Cerebral Aβ content (Aβ40 and Aβ42 kits on hemi-brain homogenates); set-up: Total Aβ: unit not given here
Method: Plasma and Cerebral Aβ Content—Hemi-brain samples were homogenized in a buffered sucrose solution, followed by either 0.4% diethylamine/100 mM NaCl for soluble Aβ levels or cold formic acid for the isolation of total Aβ. After neutralization the samples were diluted and analyzed for Aβ40 and Aβ42 using commercially available kits (BIOSOURCE International). Each hemisphere was analyzed in triplicate with the mean±SEM reported. Western blot analyses were performed on all fractions using urea gels for Aβ species analyses. Aβ was detected using 6E10 (BIOSOURCE International) and Enhanced Chemiluminenscence (Amersham).
Plasma and Cerebral Aβ Content—Hemi-brain samples were homogenized in a buffered sucrose solution, followed by either 0.4% diethylamine/100 mM NaCl for soluble Aβ levels or cold formic acid for the isolation of total Aβ. After neutralization the samples were diluted and analyzed for Aβ40 and Aβ42 using commercially available kits (BIOSOURCE International). Each hemisphere was analyzed in triplicate with the mean±SEM reported.

[3] = tested on: TgCRND8 mice; assay: Survival census (Kaplan-Meier); conditions: at 175 days; n=35 per group
Method: Survival Census—The probability of survival was assessed by the Kaplan-Meier technique, computing the probability of survival at every occurrence of death, thus making it suitable for small sample sizes. For the analyses of survival, 35 mice were used for each treatment group. The comparison between treatments was reported using the Tarone-Ware test.

[4] = tested on: TgCRND8 mice; assay: Vascular amyloid burden; conditions: 6 months of age
Method: Cerebral amyloid burden—Brains were removed and one hemisphere was fixed in 4% paraformaldehyde and embedded in paraffin wax in the mid saggital plane. To generate sets of systematic uniform random sections, 5 μm serial sections were collected across the entire hemisphere. Sets of sections at […] intervals were used for analyses (10-14 sections/set). Plaque were identified after antigen retrieval with formic acid, and incubated with primary anti-Aβ antibody (Dako M-0872), followed by secondary antibody (Dako StreptABCcomplex/horseradish kit). End products were visualized with DAB counter-stained with hematoxylin. Amyloid plaque burden was assessed using Leco IA-3001 image analysis software interfaced with Leica microscope and Hitachi KP-M1U CCD video camera. Vascular burden was analyzed similarly and a dissector was used to measure the diameter of affected vessels.
Alzheimer's disease is characterized by the presence of both parenchymal and vascular amyloid deposits. In untreated 6 month old TgCRND8 mice approximately 0.03% of the brain area is associated with vascular amyloid.

[5] = tested on: non-Tg littermates; assay: Morris Water Maze performance of treated non-Tg littermates; conditions: treated vs untreated non-Tg
Method: Behavioral tests—After non-spatial pre-training, mice underwent place discrimination training for 5 days with 4 trials per day. Behavioral data was analyzed using a mixed model of factorial analysis of variance (ANOVA) with drug or genotype and training sessions as repeated measure factors.
Behavioral Test—Reversal Study—Mice entered the Morris water maze test with a hidden platform on day one without pretraining. Mice were tested for 3 days with six trials per day. On the fourth day, the platform was removed from the pool and each mouse received one 30-s swim probe trial. On the last day the animals underwent a cue test in order to evaluate swimming ability, eye sight and general cognition. The cue test is composed at the platform being placed in a different quadrant than that used for testing and is tagged with a flag. Animals are allowed 60 s to find the platform. […] Behavioural data was analysed using a mixed model of factorial analysis of variance (ANOVA) with drug or genotype and training sessions as repeated measure factors.

[6] = prevention, 6 months of age, vs untreated TgCRND8
[7] = prevention, four months of age, vs untreated TgCRND8

O[C@H]1[C@H](O)[C@@H](O)[C@H](O)[C@@H](O)[C@@H]1O [Scyllo-Inositol, scyllo-inositol]
astrogliosis/gliosis vs untreated ([1]; 6 months of age): significantly decreased amyloid burden and gliosis | astrogliosis, percent brain area covered (GFAP) ([1]; 6-months of age): 0.269±0.028% | microglial activation, % brain area ([1]; 6 months): 0.20±0.008% | Aβ load vs untreated ([2]; 1 month treatment from 5 months of age): significantly decreased the plaque burden and the Aβ load | Total Aβ ([2]; 1 month treatment, 30 mg/mouse/day from 5 months, analyzed at 6 months of age): 15194 ± 579 | Total Aβ ([2]; 4 month prevention, 30 mg/mouse/day from 6 weeks of age): 5089 ± 173 | Total Aβ ([2]; 6 month prevention, 30 mg/mouse/day from 6 weeks of age): 15621 ± 151 | reduction in Aβ40 levels [2, 6]: 32% | reduction in Aβ42 [2, 6]: 20% | decrease of total brain Aβ40 [2, 7]: 62% | decrease of total brain Aβ42 [2, 7]: 22% | survival [3]: 72% | mean size of cerebrovascular plaques ([4]; prevention): 154±16 | vascular amyloid burden vs untreated (words) ([4]; prevention, listed as Scyllo-inositol): significantly decreased the total vascular load | vascular amyloid burden vs untreated (words) ([4]; prevention, listed as scyllo-inositol): significantly decreased the vascular amyloid burden | vascular amyloid deposition in small vessels ([4]; smaller vessels): 56±2% | effect on performance of non-Tg mice [5]: had no effect on the performance of non-Tg mice; also recorded: not effected
